Measured values from patent USRE37781E1, “Substituted cyclic carbonyls and derivatives thereof useful as retroviral protease inhibitors” (DuPont Pharmaceuticals Company, priority 1991, dated 2002).
pKi: −log10 of the molar value. Where two headings read alike, the source gives them in different places.

What was measured:
[1] = biological target: single-chain tethered dimer of HIV protease (Human immunodeficiency virus 1, UniProt P04585); test: biochemical; format: biochemical
Description: HIV Protease Inhibition Assay—HPLC Method
Active protease was prepared as described therein by extraction with 67% acetic acid, dilution 33-fold with water, dialysis against water and then against a “refolding buffer” consisting of 20 mM MES, 1 mM dithiothreitol and 10% glycerol. Protease was stored as a stock preparation at 10 uM in refolding buffer.
Substrate: Peptide of sequence: aminobenzoyl-Ala-Thr-His-Gln-Val-Tyr-Phe(NO2)-Val-Arg-Lys-Ala containing p-nitrophenylalanine, was prepared by solid phase synthesis as previously described Cheng et al., op.cit. Stock solutions of 2 mM substrate were prepared in DMSO.
Inhibitory compounds were dissolved in sufficient DMSO to make 3 mM stock solutions. All further dilutions were prepared in “assay buffer”: 1M NaCl, 50 mM MES, pH 5.5, 1 mM EDTA, 1 mM DTT, […] glycerol.
Enzyme reaction: In a 2 ml screw-cap centrifuge tube were added 50 ul protease (final concentration 0.25 nM) and 0.1 ml inhibitory compound (final concentration […]). After 15 min preincubation at room temperature, the reaction was started with the addition of 0.05 ml substrate (final concentration 5 uM). Incubation was carried out at 30 C. for 1 hr. The reaction was stopped with 1 ml 0.1M ammonium hydroxide.
HPLC measurement of product formation: The product (aminobenzoyl-Ala-Thr-His-Gln-Val-Tyr) was separated from substrate on a Pharmacia MonoQ anion exchange column. The injection volume was 0.2 ml. The mobile phases were: A (20 mM trisHCl, pH 9.0, 0.02% sodium Azide, 10% acetonitrile), B (20 mM tris HCl, pH 9.0, 0.02% sodium azide, 0.5M ammonium formate, 10% acetonitrile). The mobile phases were pumped at 1 ml/min, with a gradient from 0 to 30% B in 5 min, 100% B for 4 min to wash the column, and a re-equilibration for 4 min. The retention time of the product was 3.6 min. Detection with a Shimadzu model RF535 fluorescence monitor was at 330 nm (excitation) and 430 (emission).

[2] = system: HIV-1 (RF) in MT-2 cells; test: microbe, parasite or virus in culture; format: cell-based
How it was run: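 Read-out: gag and pol viral RNA captured by 5′-biotinylated oligonucleotides on streptavidin-coated wells, detected with alkaline phosphatase-linked reporter oligonucleotides, calibrated against BH10 in vitro transcripts. Virus stocks (RF, MN, IIIB) come from H9 cultures; MT-2 host cells kept in RPMI 1640, 5% FCS.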

[3] = biological target: T1, HIV protease (Human immunodeficiency virus type 1 group M subtype B, UniProt P04585); test: biochemical; parameters: species or system HIV-1; conditions: read-out: Ki
T1 construct: plasmid containing HIV protease under the control of an inducible T7 promoter; made in house; host or cells: E. coli (inclusion bodies, T7 promoter)
Description: HIV Protease Inhibition Assay—Spectroscopic Method
Inclusion bodies were solubilized in 8M urea, 50 mM tris pH 8.0. Protease activity was recovered by dilution 20-fold into buffer containing 50 mM sodium acetate pH 5.5, 1 mM EDTA, 10% glycerol and 5% ethylene glycol. Enzyme was used at a final concentration of 1.0-10 ug/ml.
Stock solutions of 10 mM were prepared in DMSO.
All further dilutions were done in DMSO.

[4] = HIV RNA assay, HIV-1 infected MT-2 cells, class symbols
[5] = HIV protease inhibition, class symbols, read-out: Ki
[6] = Human immunodeficiency virus 1, MT2, HIV RNA assay, HIV-1 infected MT-2 cells, class symbols, read-out: IC90

| SMILES | pKi ([1]; Table 2t, read-out: Ki) | pKi [1, 5] | pKi [1] | further results |
| --- | --- | --- | --- | --- |
| O=C1N(Cc2ccccc2)CC(O)C(Cc2ccccc2)N1Cc1ccccc1 (racemic) [30A] | < 6.00 |  |  |  |
| O=C1N(Cc2ccc(CO)cc2)CC(O)C(Cc2ccccc2)N1Cc1ccc(CO)cc1 (stereo not shown) [30B] | < 6.00 |  |  |  |
| N#Cc1cccc(CN2CC(O)C(Cc3ccccc3)N(Cc3cccc(C#N)c3)C2=O)c1 (stereo not shown) [30C] | < 6.00 |  |  |  |
| O=C1N(Cc2ccc(O)cc2)CC(O)C(Cc2ccccc2)N1Cc1ccc(O)cc1 (stereo not shown) [30D] | < 6.00 |  |  |  |
| O=C1N(CC2CC2)CC(O)C(Cc2ccccc2)N1CC1CC1 (stereo not shown) [30E] | < 6.00 |  |  |  |
| O=C1N(Cc2ccc3ccccc3c2)CC(O)C(Cc2ccccc2)N1Cc1ccc2ccccc2c1 (stereo not shown) [30F] | < 6.00 |  |  |  |
| O=C1N(CCCCCCO)CC(O)C(Cc2ccccc2)N1CCCCCCO (stereo not shown) [30G] | < 6.00 |  |  |  |
| O=S1(=O)N(Cc2ccc3ccccc3c2)CC(O)C(Cc2ccccc2)N1Cc1ccc2ccccc2c1 (stereo not shown) [30I] | 6.00 to 8.00 |  |  |  |
| O=S1(=O)N(CC2CC2)CC(O)C(Cc2ccccc2)N1CC1CC1 (stereo not shown) [30J] | < 6.00 |  |  |  |
| O=C1N(Cc2ccccc2)CCC(O)C(Cc2ccccc2)N1Cc1ccccc1 (stereo not shown) [30L] | < 6.00 |  |  |  |
| O=C1N(Cc2ccc3ccccc3c2)CCC(O)C(Cc2ccccc2)N1Cc1ccc2ccccc2c1 (stereo not shown) [30M] | < 6.00 |  |  |  |
| O=C1N(Cc2ccc(CO)cc2)CCC(O)C(Cc2ccccc2)N1Cc1ccc(CO)cc1 (stereo not shown) [30N] | 6.00 to 8.00 |  |  |  |
| O=C1N(CC2CC2)CCC(O)C(Cc2ccccc2)N1CC1CC1 (stereo not shown) [30O] | < 6.00 |  |  |  |
| N#Cc1cccc(CN2CCC(O)C(Cc3ccccc3)N(Cc3cccc(C#N)c3)C2=O)c1 (stereo not shown) [30P] | < 6.00 |  |  |  |
| O=S1(=O)N(Cc2ccccc2)CCC(O)C(Cc2ccccc2)N1Cc1ccccc1 (stereo not shown) [30Q] | < 6.00 |  |  |  |
| NC(=NO)c1cccc(CN2CCC(O)C(Cc3ccccc3)N(Cc3cccc(C(N)=NO)c3)C2=O)c1 (stereo not shown) [30R] | > 8.00 |  |  |  |
| O=C1CCN(Cc2ccccc2)C(=O)N(Cc2ccccc2)C1Cc1ccccc1 (stereo not shown) [30S] | < 6.00 |  |  |  |
| O=C1N(Cc2ccccc2)CCC(=NO)C(Cc2ccccc2)N1Cc1ccccc1 (stereo not shown) [30T] | < 6.00 |  |  |  |
| O=C1N(Cc2ccccc2)CC(O)C(Cc2ccccc2)N1Cc1ccccc1 (stereo not shown) [30U] | < 6.00 |  |  |  |
| O=C1N(Cc2ccc(OC(F)(F)F)cc2)C(Cc2ccccc2)C(O)C(O)C(Cc2ccccc2)N1Cc1ccc(OC(F)(F)F)cc1 (stereo not shown) [Example 2L] |  |  |  | IC90 ([2]; Human immunodeficiency virus 1, MT2, Table 2A, read-out: IC90): < 10 µg/mL; IC90 ([2]; Human immunodeficiency virus 1, MT2, second table headed Table 2A, read-out: IC90): < 10 µg/mL; pKi ([3]; Table 2A): 6.00 to 8.00; pKi ([3]; second table headed Table 2A): 6.00 to 8.00; melting point: 136.8 °C |
| O=C1N(CC2CCCCC2)C(Cc2ccccc2)C(O)C(O)C(Cc2ccccc2)N1CC1CCCCC1 (stereo not shown) [Example 3O] |  | 6.00 to 8.00 |  | IC90 [2, 4]: + (+=>100 μg/mL) |
| O=C1N(Cc2ccc3ccccc3c2)C(Cc2ccccc2)C(O)C(O)C(Cc2ccccc2)N1Cc1ccc2ccccc2c1 (stereo not shown) [Example 3U] |  |  | > 8.00 | IC90 [2, 6]: < 10 µg/mL |
| C=CCN1C(=O)N(CC2CC2)C(Cc2ccccc2)C(O)C(O)C1Cc1ccccc1 (stereo not shown) [Example 3W] |  | > 8.00 |  | IC90 [2, 4]: +++ (+++=<10 μg/mL) |
| CCCCN1C(=O)N(CC2CC2)C(Cc2ccccc2)C(O)C(O)C1Cc1ccccc1 (stereo not shown) [Example 3X] |  |  | > 8.00 | IC90 [2, 6]: < 10 µg/mL |
| O=C1N(Cc2ccccc2)C(Cc2ccccc2)C(O)C(O)C(Cc2ccccc2)N1Cc1ccncc1 (stereo not shown) [Example 4B] |  |  | > 8.00 | IC90 [2, 6]: < 10 µg/mL |
| O=C1N(Cc2ccncc2)C(Cc2ccccc2)C(O)C(O)C(Cc2ccccc2)N1CC1CC1 (stereo not shown) [Example 4C] |  |  | > 8.00 | IC90 [2, 6]: < 10 µg/mL |

| SMILES | pKi ([1]; Table 2t, read-out: Ki) | pKi [1, 5] | pKi [1] | further results |
| --- | --- | --- | --- | --- |
| C=COCCN1C(=O)N(CCOC=C)C(Cc2ccccc2)C(O)C(O)C1Cc1ccccc1 (stereo not shown) [Example 4D] |  |  | 6.00 to 8.00 |  |
| O=C1N(Cc2ccccc2)C(Cc2ccccc2)C(O)C(O)C(Cc2ccccc2)N1CC1CCCC1 (stereo not shown) [Example 4E] |  | > 8.00 |  | IC90 [2, 4]: +++ (+++=<10 μg/mL) |
| O=C1N(CC2CCCC2)C(Cc2ccccc2)C(O)C(O)C(Cc2ccccc2)N1CC1CC1 (stereo not shown) [Example 4F] |  |  | > 8.00 | IC90 [2, 6]: < 10 µg/mL |
| CCCN1C(=O)N(Cc2ccccc2)C(Cc2ccccc2)C(O)C(O)C1Cc1ccccc1 (stereo not shown) [Example 4G] |  |  | > 8.00 | IC90 [2, 6]: < 10 µg/mL |
| [2H]c1c([2H])c([2H])c(C([2H])([2H])N2C(=O)N(C([2H])([2H])c3c([2H])c([2H])c([2H])c([2H])c3[2H])C(Cc3ccccc3)C(O)C(O)C2Cc2ccccc2)c([2H])c1[2H] (stereo not shown) [Example 4H] |  |  | > 8.00 | IC90 [2, 6]: < 10 µg/mL |
| O=C1N(CC=Cc2ccccc2)C(Cc2ccccc2)C(O)C(O)C(Cc2ccccc2)N1CC1CC1 (stereo not shown) [Example 4I] |  |  | > 8.00 | IC90 [2, 6]: < 10 µg/mL |
| O=C1N(Cc2ccccn2)C(Cc2ccccc2)C(O)C(O)C(Cc2ccccc2)N1CC1CC1 (stereo not shown) [Example 4N] |  | > 8.00 |  | IC90 [2, 4]: +++ (+++=<10 μg/mL) |
| O=C1N(Cc2ccccc2)C(Cc2ccccc2)C(O)C(O)C(Cc2ccccc2)N1Cc1ccc2ccccc2n1 (stereo not shown) [Example 4O] |  |  | 6.00 to 8.00 | IC90 [2, 6]: < 10 µg/mL |
| CCCN1C(=O)N(Cc2ccc3ccccc3c2)C(Cc2ccccc2)C(O)C(O)C1Cc1ccccc1 (stereo not shown) [Example 4T] |  | > 8.00 |  | IC90 [2, 4]: +++ (+++=<10 μg/mL) |
| O=C1NC(Cc2ccccc2)C(O)C(O)C(Cc2ccccc2)N1CC1CC1 (stereo not shown) [Example 4X] |  | 6.00 to 8.00 |  |  |
| C=CCN1C(=O)N(CC2CCCC2)C(Cc2ccccc2)C(O)C(O)C1Cc1ccccc1 (stereo not shown) [Example 5B] |  | > 8.00 |  | IC90 [2, 4]: +++ (+++=<10 μg/mL) |
| C=CCN1C(=O)N(Cc2ccc3ccccc3n2)C(Cc2ccccc2)C(O)C(O)C1Cc1ccccc1 (stereo not shown) [Example 5D] |  | > 8.00 |  | IC90 [2, 4]: +++ (+++=<10 μg/mL) |
| C=CCN1C(=O)N(Cc2ccncc2)C(Cc2ccccc2)C(O)C(O)C1Cc1ccccc1 (stereo not shown) [Example 5E] |  |  | 6.00 to 8.00 | IC90 [2, 6]: < 10 µg/mL |
| O=C1N(Cc2cccnc2)C(Cc2ccccc2)C(O)C(O)C(Cc2ccccc2)N1CC1CC1 (stereo not shown) [Example 5G] |  | > 8.00 |  | IC90 [2, 4]: +++ (+++=<10 μg/mL) |
| O=C1N(Cc2cccnc2)C(Cc2ccccc2)C(O)C(O)C(Cc2ccccc2)N1Cc1cccnc1 (stereo not shown) [Example 5O] |  |  | > 8.00 | IC90 [2, 6]: < 10 µg/mL |
| COC(=O)c1cccc(CN2C(=O)N(Cc3cccc(C(=O)OC)c3)C(Cc3ccccc3)C(O)C(O)C2Cc2ccccc2)c1 (stereo not shown) [Example 5T] |  |  | > 8.00 | IC90 [2, 6]: < 10 µg/mL |
| CC(C)N1C(=O)N(Cc2ccc(O)cc2)C(Cc2ccccc2)C(O)C(O)C1Cc1ccccc1 (stereo not shown) [Example 5Y] |  | > 8.00 |  | IC90 [2, 4]: +++ (+++=<10 μg/mL) |
| O=C(O)c1cccc(CN2C(=O)N(Cc3cccc(C(=O)O)c3)C(Cc3ccccc3)C(O)C(O)C2Cc2ccccc2)c1 (stereo not shown) [Example 6A] |  | > 8.00 |  | IC90 [2, 4]: +++ (+++=<10 μg/mL) |
| O=C(O)c1ccc(CN2C(=O)N(Cc3ccc(C(=O)O)cc3)C(Cc3ccccc3)C(O)C(O)C2Cc2ccccc2)cc1 (stereo not shown) [Example 6B] |  | 6.00 to 8.00 |  | IC90 [2, 4]: ++ (++=10 to 100 μg/mL) |
| O=C1N(Cc2cccc(O)c2)C(Cc2ccccc2)C(O)C(O)C(Cc2ccccc2)N1CC1CC1 (stereo not shown) [Example 6D] |  | > 8.00 |  | IC90 [2, 4]: +++ (+++=<10 μg/mL) |
| O=C1N(Cc2ccc(O)cc2)C(Cc2ccccc2)C(O)C(O)C(Cc2ccccc2)N1CC1CC1 (stereo not shown) [Example 6E] |  | > 8.00 |  | IC90 [2, 4]: +++ (+++=<10 μg/mL) |
| O=C1N(Cc2ccc(Cl)s2)C(Cc2ccccc2)C(O)C(O)C(Cc2ccccc2)N1Cc1ccc(Cl)s1 (stereo not shown) [Example 6F] |  | 6.00 to 8.00 |  | IC90 [2, 4]: +++ (+++=<10 μg/mL) |
| O=C1N(CC2CCC2)C(Cc2ccccc2)C(O)C(O)C(Cc2ccccc2)N1CC1CCC1 (stereo not shown) [Example 6G] |  |  | > 8.00 | IC90 [2, 6]: < 10 µg/mL |
| O=C1N(CC2CCCC2)C(Cc2ccccc2)C(O)C(O)C(Cc2ccccc2)N1CC1CCCC1 (stereo not shown) [Example 6H] |  |  | > 8.00 | IC90 [2, 6]: < 10 µg/mL |
| CCCCN1C(=O)N(CC=C(C)C)C(Cc2ccccc2)C(O)C(O)C1Cc1ccccc1 (stereo not shown) [Example 6I] |  | > 8.00 |  | IC90 [2, 4]: +++ (+++=<10 μg/mL) |
| O=C1[C@@H](Cc2ccccc2)C[C@@H](O)[C@@H](Cc2ccccc2)N1Cc1ccccc1 [Example 25A] |  |  | < 6.00 |  |
